{
  "source": "patent US20180153931A1",
  "about": "(Aventis Pharma S.A., priority 2011, published 2018)",
  "key": {"colon adenocarcinoma C51": {"tested_on": "colon adenocarcinoma C51", "assay": "Antitumor efficacy against colon adenocarcinoma C51 grafted in BALB/c mice (T/C, T-C, log cell kill)"}, "[1]": {"settings": "cisplatin dose 75 mg/m^2; value given with 'previously reported'; cited from earlier work"}, "[2]": {"assay": "Phase I study: pharmacokinetics of cabazitaxel and cisplatin in patients", "settings": "cisplatin 75 mg/m^2 followed by cabazitaxel"}, "[3]": {"assay": "Toxicity (drug death, body weight loss, HNTD) in C51 tumor-bearing BALB/c mice", "assay_type": "in vivo", "excerpt": "The animals are observed every day.\nToxicity was declared at dosages inducing≥20% body weight loss or≥10% drug death"}, "[4]": {"settings": "cisplatin alone 2.7 mg/kg/inj IV (total 5.4), days 5, 12"}, "[5]": {"settings": "cabazitaxel alone 7.7 mg/kg/inj IV (total 15.4), days 5, 12"}, "[6]": {"settings": "cabazitaxel alone 12.4 mg/kg/inj IV (total 24.8), days 5, 12"}, "[7]": {"settings": "cabazitaxel alone 20.0 mg/kg/inj IV (total 40.0), days 5, 12"}, "[8]": {"settings": "cabazitaxel alone 32.3 mg/kg/inj IV (total 64.6), days 5, 12"}},
  "data": [
    {"smiles": "N.N.[Cl][Pt][Cl]", "note": "[cisplatin]", "values": [
      {"measurement": "Comments", "setting": "colon adenocarcinoma C51; [4]", "value": "Active"},
      {"measurement": "T-C in days (750 mg)", "setting": "colon adenocarcinoma C51; [4]", "value": 15.1, "unit": "days"},
      {"measurement": "T/C in % on day 20", "setting": "colon adenocarcinoma C51; [4]", "value": 2, "unit": "%"},
      {"measurement": "log10 cell kill gross", "setting": "colon adenocarcinoma C51; [4]", "value": 1.8},
      {"measurement": "T-C in days (750 mg)", "setting": "colon adenocarcinoma C51; cisplatin alone […] IV (total 8.6), days 5, 12", "value": 22.1, "unit": "days"},
      {"measurement": "AUClast, free platinum", "setting": "[1]", "value": 4170, "unit": "ng·h/mL"},
      {"measurement": "AUClast, total platinum", "setting": "[1]", "value": "45 820 ng.h/mL"},
      {"measurement": "effect of cabazitaxel on the PK of cisplatin (total and free)", "setting": "[2]", "value": "did not appear to alter"}
    ]},
    {"smiles": "CO[C@H]1C(=O)[C@]2(C)[C@@H](OC)C[C@H]3OC[C@@]3(OC(C)=O)[C@H]2[C@H](OC(=O)c2ccccc2)[C@]2(O)C[C@H](OC(=O)[C@H](O)[C@@H](NC(=O)OC(C)(C)C)c3ccccc3)C(C)=C1C2(C)C", "note": "[cabazitaxel, 4α-acetoxy-2α-benzoyloxy-5β,20-epoxy-1β-hydroxy-7β, 10β-dimethoxy-9-oxo-11-taxen-13α-yl (2R,3S)-3-tert-butoxycarbonylamino-2-hydroxy-3-phenylpropionate]", "values": [
      {"measurement": "Comments", "setting": "colon adenocarcinoma C51; [5]", "value": "Active"},
      {"measurement": "T-C in days (750 mg)", "setting": "colon adenocarcinoma C51; [5]", "value": 11.0, "unit": "days"},
      {"measurement": "T/C in % on day 20", "setting": "colon adenocarcinoma C51; [5]", "value": 5, "unit": "%"},
      {"measurement": "log10 cell kill gross", "setting": "colon adenocarcinoma C51; [5]", "value": 1.3},
      {"measurement": "Comments", "setting": "colon adenocarcinoma C51; [6]", "value": "Active"},
      {"measurement": "T-C in days (750 mg)", "setting": "colon adenocarcinoma C51; [6]", "value": 11.7, "unit": "days"},
      {"measurement": "T/C in % on day 20", "setting": "colon adenocarcinoma C51; [6]", "value": 3, "unit": "%"},
      {"measurement": "log10 cell kill gross", "setting": "colon adenocarcinoma C51; [6]", "value": 1.4},
      {"measurement": "Comments", "setting": "colon adenocarcinoma C51; [7]", "value": "HNTD active"},
      {"measurement": "T-C in days (750 mg)", "setting": "colon adenocarcinoma C51; [7]", "value": 15.2, "unit": "days"},
      {"measurement": "T/C in % on day 20", "setting": "colon adenocarcinoma C51; [7]", "value": 0, "unit": "%"},
      {"measurement": "log10 cell kill gross", "setting": "colon adenocarcinoma C51; cabazitaxel alone 20.0 mg/kg/inj IV (total 40.0), days 5, 12 (HNTD)", "value": 1.8},
      {"measurement": "Drug death", "setting": "[3]; [5]", "value": "0/6"},
      {"measurement": "% Body weight change at nadir", "setting": "[3]; cabazitaxel alone 7.7 mg/kg/inj IV (total 15.4), days 5, 12, nadir day 9", "value": "−6.8", "unit": "%"},
      {"measurement": "Drug death", "setting": "[3]; [6]", "value": "0/6"},
      {"measurement": "% Body weight change at nadir", "setting": "[3]; cabazitaxel alone 12.4 mg/kg/inj IV (total 24.8), days 5, 12, nadir day 9", "value": "−8.1", "unit": "%"},
      {"measurement": "Drug death", "setting": "[3]; [7]", "value": "0/6"},
      {"measurement": "% Body weight change at nadir", "setting": "[3]; cabazitaxel alone 20.0 mg/kg/inj IV (total 40.0), days 5, 12, nadir day 19", "value": "−14.6", "unit": "%"},
      {"measurement": "Comments", "setting": "[3]; [8]", "value": "Toxic (6/6 DD)"},
      {"measurement": "Drug death", "setting": "[3]; [8]", "value": "6/6"},
      {"measurement": "highest nontoxic dose (HNTD)", "setting": "[3]; cabazitaxel alone IV, days 5, 12 (total injected dose 40 mg/kg)", "value": 20, "unit": "mg/kg/inj"}
    ]}
  ]
}
